ChEMBL document CHEMBL1201862, “PubChem BioAssay data set” (2004)
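In this assay, cells in 96-well plates receive the compound at five concentrations for 48 hours. Endpoints are linearly interpolated between the surrounding concentrations. GI50 = concentration required for 50% inhibition of growth.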 Calls of active or inactive are those of the source. Rule as the data show it: active = GI50 up to about 1.1 µM and inactive = higher.

Columns and labels:
Assay in all cases: NCI tumour cell line growth inhibition, 48 h
[1] = system: BT-549
[2] = system: T47D
[3] = system: DLD-1
[4] = system: LXFL 529
[5] = system: HOP-18
[6] = system: DMS-273
[7] = system: M19-MEL
[8] = system: XF498

NCCSCCc1ccccc1
GI50 [1]: > 100 µM (inactive)
GI50 [2]: 55.1 µM (inactive)

COc1cc(C(=O)c2cocc2C(=O)c2ccc3c(c2)OCO3)cc(OC)c1OC
GI50 [3]: 0.867 µM (active)
GI50 [4]: 0.871 µM (active)
GI50 [5]: > 51.1 µM (inactive)
GI50 [6]: 0.729 µM (active)
GI50 [7]: 2.96 µM (inactive)
GI50 [8]: 1.34 µM (inactive)
GI50 [1]: 0.149 µM (active)

O=[N+]([O-])c1ccc2[nH]c(-c3ccc(Cl)cc3)nc2c1
GI50 [1]: 29.7 µM (inactive)
GI50 [2]: 24.6 µM (inactive)

O=C(O)c1ccccc1C1c2ccccc2Oc2ccccc21
GI50 [1]: 72.3 µM (inactive)
GI50 [2]: 71.9 µM (inactive)

COC(=O)c1cc2c(n1S(=O)(=O)c1ccc(C)cc1)C(=O)C(=O)c1[nH]cc(C(=O)OCc3ccccc3)c1-2
GI50 [1]: 0.183 µM (active)
GI50 [2]: 0.216 µM (active)

CN(C)CCCNc1ncnc2[nH]cnc12
GI50 [1]: > 100 µM (inactive)
GI50 [2]: > 100 µM (inactive)

Sc1ncc2[nH]nnc2n1
GI50 [1]: > 100 µM (inactive)

CCCCCCNCCCNc1c2ccccc2nc2cccc([N+](=O)[O-])c12
GI50 [1]: 0.11 µM (active)
GI50 [2]: 0.0369 µM (active)

O=c1[nH]c(=O)n(C2CC(O)C(CO)O2)cc1C#Cc1c(F)c(F)c(F)c(F)c1F (configuration not stated)
GI50 [3]: > 100 µM (inactive)
GI50 [4]: > 100 µM (inactive)
GI50 [6]: > 100 µM (inactive)
GI50 [7]: > 100 µM (inactive)

NNc1nnc(-c2nnc(NN)o2)o1
GI50 [1]: > 10 µM (inactive)
GI50 [2]: > 10 µM (inactive)

COc1nc2c(OC)cccc2c(OC)c1C=O
GI50 [5]: > 100 µM (inactive)
GI50 [6]: > 100 µM (inactive)
GI50 [7]: > 100 µM (inactive)
GI50 [8]: 18.8 µM (inactive)

CC(C)(C)CC(C)(C)c1cc2c(O)c(c1)Cc1cc(C(C)(C)CC(C)(C)C)cc(c1O)Cc1cc(C(C)(C)CC(C)(C)C)cc(c1O)Cc1cc(C(C)(C)CC(C)(C)C)cc(c1O)Cc1cc(C(C)(C)CC(C)(C)C)cc(c1O)C2
GI50 [3]: > 100 µM (inactive)
GI50 [4]: > 100 µM (inactive)
GI50 [6]: > 100 µM (inactive)
GI50 [7]: > 100 µM (inactive)
GI50 [8]: > 100 µM (inactive)

CCOC(=O)NC(=S)NN(C)C1=NCC(C)(C)S1
GI50 [1]: > 100 µM (inactive)
GI50 [2]: > 100 µM (inactive)

CN(C)C=C1C(Cl)=C(C=O)CC(C=O)=C1Cl
GI50 [3]: 5.71 µM (inactive)
GI50 [4]: 2.03 µM (inactive)
GI50 [5]: 13.3 µM (inactive)
GI50 [6]: 11 µM (inactive)
GI50 [7]: 11.4 µM (inactive)

CCOP(=O)(OCC)/C(C#N)=C/c1coc2cc(C)cc(C)c2c1=O
GI50 [1]: > 100 µM (inactive)

Cc1ccc(C)c(N2C(=O)C(=O)C(c3nc4ccccc4s3)/C(=N/N)C2=O)c1 (configuration not stated)
GI50 [3]: > 100 µM (inactive)
GI50 [4]: > 100 µM (inactive)
GI50 [6]: > 100 µM (inactive)
GI50 [7]: > 20.2 µM (inactive)
GI50 [8]: > 100 µM (inactive)

CC1(C)C/C(=N/O)c2c(nc3ccc4ccccc4c3c2-c2ccc(Cl)cc2)C1
GI50 [1]: 10.6 µM (inactive)
GI50 [2]: 12.1 µM (inactive)

CC(C)=CC(=O)c1[nH]c2ccccc2c1CC(=O)NCCc1c[nH]cn1
GI50 [1]: > 100 µM (inactive)
GI50 [2]: > 100 µM (inactive)

CC1OC(O[C@@H]2OC=C(C=O)[C@@]3(O)CC[C@H](C)[C@@H]23)C(O)C(O)C1O (some centres not stated)
GI50 [1]: > 100 µM (inactive)
GI50 [2]: > 100 µM (inactive)

Cc1ccccc1C(=O)N1CCc2c([nH]c3ccccc23)C1
GI50 [1]: 18.7 µM (inactive)
GI50 [2]: 21.9 µM (inactive)

CCN(CC)c1ccc(/N=N/c2ccc(-c3nc4cccnc4o3)cc2)cc1
GI50 [3]: 60.3 µM (inactive)
GI50 [4]: > 100 µM (inactive)
GI50 [6]: > 100 µM (inactive)
GI50 [7]: > 100 µM (inactive)
GI50 [8]: > 100 µM (inactive)

COC(=O)C12C3C=CC(O3)C1C1C=CC2O1 (configuration not stated)
GI50 [3]: > 100 µM (inactive)
GI50 [4]: > 100 µM (inactive)
GI50 [5]: > 100 µM (inactive)
GI50 [6]: > 100 µM (inactive)
GI50 [7]: > 100 µM (inactive)
GI50 [8]: > 100 µM (inactive)

C[C@H]1[C@H](C)N(Cc2ccccc2)P(=O)(C(O)/C=C/c2ccccc2)N1Cc1ccccc1 (some centres not stated)
GI50 [1]: 12 µM (inactive)
GI50 [2]: 6.27 µM (inactive)

COC(=O)c1ccccc1C1CN=NC12Cc1c(ccc3c1CCC3)C2=O (configuration not stated)
GI50 [1]: 92.7 µM (inactive)
GI50 [2]: 54 µM (inactive)

CCCCCC/C=C1\CCC(CN(C)C)C1=O (configuration not stated)
GI50 [3]: 2.23 µM (inactive)
GI50 [4]: 1.99 µM (inactive)
GI50 [5]: 15.4 µM (inactive)
GI50 [6]: 4.15 µM (inactive)
GI50 [7]: 2.59 µM (inactive)
GI50 [8]: 3.31 µM (inactive)
GI50 [1]: 18.9 µM (inactive)
GI50 [2]: 2.86 µM (inactive)

CN1C2CCC1CC(CC(=O)NC(c1ccc(F)cc1)c1ccc(F)cc1)C2 (configuration not stated)
GI50 [1]: > 100 µM (inactive)
GI50 [2]: > 100 µM (inactive)

Cc1c(OCCCOc2ccc3c(=O)cc(-c4ccccc4)oc3c2C)ccc2c(=O)cc(-c3ccccc3)oc12
GI50 [3]: > 100 µM (inactive)
GI50 [4]: > 100 µM (inactive)
GI50 [5]: > 100 µM (inactive)
GI50 [6]: > 100 µM (inactive)
GI50 [7]: > 100 µM (inactive)
GI50 [8]: > 100 µM (inactive)
